The values below come from patent US20240239788A1, “SMALL MOLECULE INHIBITORS OF KRAS G12D MUTANT” (Merck Sharp & Dohme LLC, priority 2021, published 2024).

The subject of test [1] is AsPC-1 cells containing homozygous KRAS-G12D activating mutation. The experiment in a line: Cellular phospho-ERK assay with 10% FBS (Examples 107a-256). The test is classed as cell-based. As to the method:
5% CO2 for 2 hours. […] Assay plates were read on a EnVision Multimode Plate Reader (PerkinElmer) and the ratio of p-Erk vs total Erk in each well was used as the final readout.

Test [2] addresses KRAS protein containing G12D mutation (Homo sapiens (Human), UniProt P01116, G12D). The experiment in a line: SOS-catalyzed nucleotide exchange assay (GNE), TR-FRET. Type of test: biochemical. As to conditions: biotinylated KRAS G12D, SOS and GTP, 60-minute incubation. As to the method:
Compounds are added to this complex and then after a 60-minute incubation time the mixture is treated with SOS and unlabeled GTP. Small molecule inhibitors stabilize the Bodipy-GDP complex whereas the untreated protein rapidly exchanges Bodipy-GDP for unlabeled GTP resulting in reduced TR-FRET signal.
This solution is referred to as biotinylated KRAS G12D stock solution.
For orientation: TR-FRET usually uses a lanthanide donor and a delayed reading to cut background.

Setting [3] is: read-out: IC50 (nM) pERK (cell with FBS 10%), AsPC-1 cells, 10% fetal bovine serum, 2 hours, ratio of p-Erk vs total Erk.
Setting [4] is: Homo sapiens, ASPC1, 2 h, read-out: IC50 (nM) pERK (cell with FBS 10%), AsPC-1 cells, 10% fetal bovine serum, 2 hours, ratio of p-Erk vs total Erk.
Where [5] appears, read: read-out: IC50 (nM) pERK (cell with FBS 10%), AsPC-1 cells, 10% fetal bovine serum, 2 hours, ratio of p-Erk vs total Erk, TFA.

SMILES strings stand for the structures. Where a name gives a salt, the structure may show the parent alone. Read-outs that look alike come from different tables or passages of the source.

Chain of KRAS protein containing G12D mutation (P01116 other isoform, or with tags, fused parts or gaps G12D (already in the parent)): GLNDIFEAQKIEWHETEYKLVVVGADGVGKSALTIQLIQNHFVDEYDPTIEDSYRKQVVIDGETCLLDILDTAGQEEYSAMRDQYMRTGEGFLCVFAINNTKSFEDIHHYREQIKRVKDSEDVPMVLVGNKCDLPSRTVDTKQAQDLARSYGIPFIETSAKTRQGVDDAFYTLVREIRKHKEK

On to `C#Cc1cccc2nc(N)cc(-c3c(F)cc4c(N5CC6CCC(C5)N6)nc(OC[C@@]56CCCN5C[C@H](F)C6)nc4c3F)c12` (single isomer, unassigned) [Ex. 203b], for which the figures for the IC50 in test [1] (setting [3]) and in test [2] were 120 nM and 3.32 nM, respectively.

Take `C#Cc1cccc2cc(O)c(C)c(-c3c(F)cc4c(N5CC6CC[C@@](C)(C5)N6)nc(OC[C@@]56CCCN5C[C@H](F)C6)nc4c3F)c12` (single isomer, unassigned) [Ex. 204a]: the IC50 in test [1] (setting [3]) was found to be 64.2 nM; in test [2] it was 1.13 nM.

Take `C#Cc1cccc2cc(O)c(C)c(-c3c(F)cc4c(N5CC6CC[C@@](C)(C5)N6)nc(OC[C@@]56CCCN5C[C@H](F)C6)nc4c3F)c12` (single isomer, unassigned) [Ex. 204b]: the IC50 is 443 nM in test [1] (setting [3]) and 23.4 nM in test [2].

Turning to `C[C@]12CCC(CN(c3nc(OCC4(CN5CC6CCC(C5)O6)CC4)nc4c(F)c(-c5cc(O)cc6cccc(Cl)c56)c(F)cc34)C1)N2` (single isomer, unassigned) [Ex. 208], the IC50 came out at 30000 nM in test [1] (setting [4]) and 210 nM in test [2].

In the case of `CC(O)(COc1nc(N2CC3CC[C@@](C)(C2)N3)c2cc(F)c(-c3cc(O)cc4cccc(Cl)c34)c(F)c2n1)CN1CC[C@@H](F)C1` (single isomer, unassigned) [Ex. 209], the results for the IC50 in test [1] (setting [4]) and in test [2] were 2910 nM and 46.1 nM, respectively.

For the molecule `C#Cc1cccc2cccc(-c3c(F)cc4c(N5CC6CC[C@@](C)(C5)N6)nc(OC[C@@]56CCCN5C[C@H](F)C6)nc4c3F)c12` (single isomer, unassigned) [Ex. 211b], the values for the IC50 in test [1] (setting [4]) and in test [2] were 2010 nM and 7.41 nM, respectively.

Turning to `COCCNC[C@@]1(COc2nc(N3CC4CC[C@@](C)(C3)N4)c3cc(F)c(-c4c(C(F)(F)F)c(C)cc5[nH]ncc45)c(F)c3n2)CC1(F)F` (single isomer, unassigned) [Ex. 213], the IC50 was determined as 25600 nM in test [1] (setting [4]) and 4460 nM in test [2].

For `COCC1CCN(C[C@@]2(COc3nc(N4CC5CC[C@@](C)(C4)N5)c4cc(F)c(-c5cc(O)cc6cccc(Cl)c56)c(F)c4n3)CC2(F)F)C1` (single isomer, unassigned) [Ex. 214a], the values for the IC50 in test [1] (setting [3]) and in test [2] were 3710 nM and 4.95 nM, respectively.

For the molecule `COCC1CCN(C[C@@]2(COc3nc(N4CC5CC[C@@](C)(C4)N5)c4cc(F)c(-c5cc(O)cc6cccc(Cl)c56)c(F)c4n3)CC2(F)F)C1` (single isomer, unassigned) [Ex. 214b], the values for the IC50 in test [1] (setting [3]) and in test [2] were 9070 nM and 180 nM, respectively.

With `CO[C@@H]1CCN(C[C@@]2(COc3nc(N4CC5CC[C@@](C)(C4)N5)c4cc(F)c(-c5cc(O)cc6cccc(Cl)c56)c(F)c4n3)CC2(F)F)C1` (single isomer, unassigned) [Ex. 215a], the IC50 in test [1] (setting [3]) was 14000 nM; in test [2], 5.06 nM.

On to `CO[C@@H]1CCN(C[C@@]2(COc3nc(N4CC5CC[C@@](C)(C4)N5)c4cc(F)c(-c5cc(O)cc6cccc(Cl)c56)c(F)c4n3)CC2(F)F)C1` (single isomer, unassigned) [Ex. 215b], for which the IC50 in test [1] (setting [3]) amounted to 2370 nM; in test [2], 429 nM.

Consider `C[C@]12CCC(CN(c3nc(OC[C@]4(CN[C@H]5C[C@@H](O)C5)CC4(F)F)nc4c(F)c(-c5cc(O)cc6cccc(Cl)c56)c(F)cc34)C1)N2` (single isomer, unassigned) [Ex. 216a], for which the IC50 worked out at 3090 nM in test [1] (setting [3]) and 6.65 nM in test [2].

On to `C[C@]12CCC(CN(c3nc(OC[C@]4(CN[C@H]5C[C@@H](O)C5)CC4(F)F)nc4c(F)c(-c5cc(O)cc6cccc(Cl)c56)c(F)cc34)C1)N2` (single isomer, unassigned) [Ex. 216b], for which the IC50 in test [1] (setting [3]) turned out to be 7120 nM; in test [2], 804 nM.

Regarding `C[C@]12CCC(CN(c3nc(OC[C@]4(CN[C@@H]5CC[C@H](O)C5)CC4(F)F)nc4c(F)c(-c5cc(O)cc6cccc(Cl)c56)c(F)cc34)C1)N2` (single isomer, unassigned) [Ex. 219a], the IC50 in test [1] (setting [3]) amounted to 1250 nM; in test [2], 3.27 nM.

For the molecule `C[C@]12CCC(CN(c3nc(OC[C@]4(CN[C@@H]5CC[C@H](O)C5)CC4(F)F)nc4c(F)c(-c5cc(O)cc6cccc(Cl)c56)c(F)cc34)C1)N2` (single isomer, unassigned) [Ex. 219b], the results for the IC50 in test [1] (setting [3]) and in test [2] were 9380 nM and 627 nM, respectively.

Consider `CN(C[C@@]1(COc2nc(N3CC4CC[C@@](C)(C3)N4)c3cc(F)c(-c4cc(O)cc5cccc(Cl)c45)c(F)c3n2)CC1(F)F)C1COC1` (single isomer, unassigned) [Ex. 220], for which the IC50 in test [1] (setting [4]) was 7830 nM; in test [2], 470 nM.

Regarding `COCCOCC1CCN(C[C@@]2(COc3nc(N4CC5CC[C@@](C)(C4)N5)c4cc(F)c(-c5c(C(F)(F)F)c(C)cc6[nH]ncc56)c(F)c4n3)CC2(F)F)C1` (single isomer, unassigned) [Ex. 222], the IC50 in test [1] (setting [4]) came to 2880 nM; in test [2] it was 8.84 nM.

On to `Cc1cc2[nH]nc(C#N)c2c(-c2c(F)cc3c(N4C[C@H]5CC[C@@H](C4)N5)nc(OC[C@@]45CCCN4C[C@H](F)C5)nc3c2F)c1C(F)(F)F` (single isomer, unassigned) [Ex. 227a], for which the IC50 in test [1] (setting [3]) was 1520 nM; in test [2] it was 190 nM.

On to `C[C@]12CCC(CN(c3nc(OC[C@@]45CCCN4C[C@H](F)C5)nc4c(F)c(-c5cc(O)cn6ncc(Cl)c56)c(F)cc34)C1)N2` (single isomer, unassigned) [Ex. 230a, TFA], for which the results for the IC50 in test [1] (setting [5]) and in test [2] were 1450 nM and 30.9 nM, respectively.

Take `C[C@]12CCC(CN(c3nc(OC[C@@]45CCCN4C[C@H](F)C5)nc4c(F)c(-c5cc(O)cn6ncc(Cl)c56)c(F)cc34)C1)N2` (single isomer, unassigned) [Ex. 230b, TFA]: the IC50 in test [1] (setting [5]) came out at 9100 nM; in test [2], 162 nM.

With `Nc1cc(-c2c(F)cc3c(N4CC5CCC(C4)N5)nc(OC[C@@]45CCCN4C[C@H](F)C5)nc3c2F)c2c(Cl)cccc2n1` (single isomer, unassigned) [Ex. 231a], the IC50 turned out to be 9300 nM in test [1] (setting [3]) and 1490 nM in test [2].

Regarding `Nc1cc(-c2c(F)cc3c(N4CC5CCC(C4)N5)nc(OC[C@@]45CCCN4C[C@H](F)C5)nc3c2F)c2c(Cl)cccc2n1` (single isomer, unassigned) [Ex. 231b], the IC50 in test [1] (setting [3]) turned out to be 326 nM; in test [2] it was 38.4 nM.

On to `Cc1cc2[nH]nc(C)c2c(-c2c(F)cc3c(N4CC5CCC(C4)N5)nc(OC[C@@]45CCCN4C[C@H](F)C5)nc3c2F)c1OC(F)(F)F` (single isomer, unassigned) [Ex. 232a], for which the IC50 is 30000 nM in test [1] (setting [3]) and 932 nM in test [2].

With `Cc1cc2[nH]nc(C)c2c(-c2c(F)cc3c(N4CC5CCC(C4)N5)nc(OC[C@@]45CCCN4C[C@H](F)C5)nc3c2F)c1OC(F)(F)F` (single isomer, unassigned) [Ex. 232b], the IC50 in test [1] (setting [3]) turned out to be 155 nM; in test [2], 5.9 nM.

On to `Oc1cc(Cl)c(C(F)(F)F)cc1-c1c(F)cc2c(N3CC4CCC(C3)N4)nc(OC[C@@]34CCCN3C[C@H](F)C4)nc2c1F` (single isomer, unassigned) [Ex. 256], for which the IC50 in test [1] (setting [4]) worked out at 5870 nM; in test [2] it was 246 nM.

As for `C[C@]12CC[C@H](CN(c3nc(OCC45CCCN4CCC(F)(F)C5)nc4c(F)c(-c5cc(O)cc6cccc(Cl)c56)c(F)cc34)C1)N2` (single isomer, unassigned) [Example 116b], the IC50 in test [1] (setting [4]) turned out to be 14000 nM; in test [2] it was 473 nM.

For `Cc1cc2[nH]ncc2c(-c2c(F)cc3c(N4CC5CCC(C4)N5)nc(OC[C@@]45CCCN4C[C@H](F)C5)nc3c2F)c1OC(F)(F)Cl` (single isomer, unassigned) [compound 253], the results for the IC50 in test [1] (setting [4]) and in test [2] were 111 nM and 1.74 nM, respectively.

Take `C[C@]12CCC(CN(c3nc(OCC45CCCN4CC(F)C5)nc4c(F)c(-c5nc(N)cc6cccc(Cl)c56)c(F)cc34)C1)N2` (stereo in doubt) [Ex. 131, 8-chloro-1-(6,8-difluoro-2-(((2S,7aR)-2-fluorotetrahydro-1H-pyrrolizin-7a(5H)-yl)methoxy)-4-((1S,5R)-1-methyl-3,8-diaza-bicyclo[3.2.1]octan-3-yl)quinazolin-7-yl) isoquinolin-3-amine]: the IC50 is 6980 nM in test [1] (setting [4]) and 188 nM in test [2].

In the case of `CN(C)C[C@@]1(COc2nc(N3C[C@H]4CC[C@@](C)(C3)N4)c3cc(C#N)c(-c4cc(O)cc5ccccc45)c(F)c3n2)CC1(F)F` [136b, 2-(((R)-1-((dimethylamino)methyl)-2,2-difluorocyclopropyl)methoxy)-8-fluoro-7-(3-hydroxynaphthalen-1-yl)-4-((1S,5R)-1-methyl-3,8-diazabicyclo[3.2.]octan-3-yl)quinazoline-6-carbonitrile], the IC50 in test [1] (setting [3]) came to 2380 nM; in test [2] it was 32.4 nM.

`C#Cc1cccc2c(F)c(O)cc(-c3c(F)cc4c(N5C[C@H]6CC[C@@](C)(C5)N6)nc(OC[C@@]56CCCN5C[C@H](F)C6)nc4c3F)c12` [202a, 4-(6,8-difluoro-2-(((2R,7aS)-2-fluorotetrahydro-1H-pyrrolizin-7a(5H)-yl)methoxy)-4-((1.5R)-1-methyl-3,8-diazabicyclo[3.2.1]octan-3-yl)quinazolin-7-yl)-5-ethynyl-1-fluoronaphthalen-2-ol]: the IC50 in test [1] (setting [3]) came to 11500 nM; in test [2], 302 nM.
